Experimental data: patent US10920265B2, “Compounds and methods for detection of enzymes that remove methyl succinyl groups from epsilon-amino lysine moieties” (Enzo Life Sciences, Inc., priority 2011, dated 2021)
Blank lines part the entries; values can stand above or below the molecule they belong to.

How the values were obtained:
Assay type in all cases: biochemical
[1] = target: T1, bovine pancreatic trypsin (Bos taurus, UniProt P00760); assay: Trypsin release of AMC from lysyl-AMC compounds; settings: 1 μM compound, trypsin 2 mg/ml, room temperature
T1 construct: purchased ENZO Life Sciences BML-KI105 or BML-KI176; host or cells: bovine pancreas
T1 sequence (P00760 24-246): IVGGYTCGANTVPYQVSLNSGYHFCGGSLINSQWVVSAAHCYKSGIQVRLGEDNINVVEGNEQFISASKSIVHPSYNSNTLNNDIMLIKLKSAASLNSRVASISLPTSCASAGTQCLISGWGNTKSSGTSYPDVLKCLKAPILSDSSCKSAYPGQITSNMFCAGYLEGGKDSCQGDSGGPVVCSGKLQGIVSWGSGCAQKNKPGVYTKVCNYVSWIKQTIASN
Description: FIG. 2 is a graph showing that trypsin treatment releases fluorescent AMC from Ac-Lys-AMC but not Ac-Lys(Succinyl)-AMC. Samples (100 μl) of 1 μM Ac-Lys-AMC and 1 μM Ac-Lys(Succinyl)-AMC in a buffered solution (50 mM Tris/HCl, pH 8.0, 137 mM NaCl, 2.7 mM KCl, 1 mM MgCl2) were treated with bovine pancreatic trypsin (2 mg/ml) for the indicated times at room temperature. Samples were in the wells of a 96-well, ½-area white microplate and fluorescence was measured at 1 min. intervals at the excitation and emission wavelengths for free AMC (Excitation: 360 nm; Emission: 460 nm) in a Synergy 2 microplate reading fluorimeter (BioTek), Gain 40. The data points at 0 min. represent the fluorescence of equivalent 1 μM Ac-Lys(Succ.)-AMC and 1 μM Ac-Lys-AMC samples in the absence of trypsin.
As noted in the Background of the Invention section above, the protease trypsin catalyzes the hydrolytic cleavage of amide bonds on the carboxyl side of unmodified lysine residues. Hydrolytic cleavage of lysyl amide bonds with AMC or rhodamine 110 (dye components of Compounds 1 and 2, respectively) releases the free amino forms of the dyes. This elicits an upward shift of the dye's fluorescence emission peak wavelength (bathochromic shift), for example to 460 nm for AMC or 530 nm for rhodamine 110. If succinylation of the ε-amino function of the lysine moieties in compounds such as 1 and 2 renders the amide bond between the carbonyl of lysine and the amino of dye groups such as AMC or rhodamine resistant to trypsin cleavage then, upon desuccinylation, the lysine/dye amide bond would become cleavable by trypsin. Note that removal of a single succinyl group from 2, followed by cleavage of the desuccinylated lysine would yield a compound with a single free amino function, Ac-K(Succ.)-R110. Monoamides of rhodamine 110 also have increased fluorescence emission at 530 nm relative to 2, although they are less fluorescent than rhodamine 110 itself (Liu et al., 1999). Thus, monitoring the fluorescence at the peak wavelength of the amino form of the dye would allow the desuccinylation reaction to be quantified. A schematic for such an assay is depicted for Compound 1 and SIRT5 in FIG. 1. Trypsin treatment (2 mg/ml) elicits an immediate increase in the fluorescence of a solution of Ac-Lys-AMC (Compound 6—FIG. 1) at the excitation and emission wavelengths of free AMC (Ex. 360 nm; Em. 460 nm), with maximum fluorescence achieved in 2 min. or less and ˜⅔ of that maximum occurring in 1 min. (FIG. 2).

[2] = target: T2, SIRT5 (Homo sapiens, UniProt Q9NXA8); assay: SIRT5 desuccinylation/deacetylation of fluorogenic lysyl substrates, trypsin developer; parameters: purchased Enzo Life Sciences BML-SE555
T2 sequence (Q9NXA8 37-310): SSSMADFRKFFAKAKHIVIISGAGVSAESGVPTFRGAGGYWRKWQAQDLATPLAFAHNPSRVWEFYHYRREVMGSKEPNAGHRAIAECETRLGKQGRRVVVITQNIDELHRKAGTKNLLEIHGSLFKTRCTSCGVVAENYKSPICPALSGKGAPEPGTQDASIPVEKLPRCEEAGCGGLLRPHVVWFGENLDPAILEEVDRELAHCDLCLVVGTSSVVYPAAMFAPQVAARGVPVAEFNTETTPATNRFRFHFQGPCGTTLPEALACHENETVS
Description: FIG. 3 is graphs showing that SIRT5 catalyzes NAD^+-dependent desuccinylation of Ac-Lys(ε-succinyl)-AMC far more efficiently than NAD^+-dependent deacetylation of Ac-Arg-His-Lys-Lys(ε-acetyl)-AMC. Fifty μl reactions in Assay Buffer (50 mM Tris/HCl, pH 8.0, 137 mM NaCl, 2.7 mM KCl, 1 mM MgCl2, 1 mg/ml BSA) included 50 μM of either Ac-Lys(ε-succinyl)-AMC or Ac-Arg-His-Lys-Lys(ε-acetyl)-AMC, and, where indicated, 500 μM NAD^+ and 5 μg recombinant human SIRT5 (Enzo Life Sciences Cat. # BML-SE555). […] AMC fluorescence was read in a Cytofluor II plate-reading fluorimeter (Perseptive Biosystems) at wavelengths 360 nm (excitation)/460 nm (emission), Gain 54. Data represent the mean of two (No Enzyme) or three (+SIRT5) determinations and error bars the standard deviations. Panels A and B present the same data, but with the +SIRT5/+NAD^+/Ac-Lys(ε-succinyl)-AMC bar omitted from B to show the detail on the remaining bars. Statistically significant differences (Student's t-test) are indicated by asterisks as follows: *: p<0.02 vs. corresponding No Enzyme control; **: p<0.001 vs. corresponding −NAD^+ control; ***: p<3×10^−6 vs. both No Enzyme and −NAD^+ controls.
FIG. 4 is a graph showing that Ac-Lys(Succ.)-AMC enables SIRT5 assay at low enzyme concentrations. Fifty μl reactions in Assay Buffer (50 mM Tris/HCl, pH 8.0, 137 mM NaCl, 2.7 mM KCl, 1 mM MgCl2, 1 mg/ml BSA) included 2 or 10 μM Ac-Lys(ε-succinyl)-AMC, 500 μM NAD^+ and, where indicated, 5 ng recombinant human SIRT5 (Enzo Life Sciences Cat. # BML-SE555). […] AMC fluorescence was read in a Synergy 2 plate-reading fluorimeter (BioTek) at wavelengths 360 nm (excitation)/460 nm (emission), Gain 40. Data represent the mean of two (No Enzyme) or three (5 ng SIRT5) determinations and error bars the standard deviations. Statistically significant differences (Student's t-test) are indicated by asterisks as follows: *: p=0.002; **: p=0.009, each with respect to the corresponding “No SIRT5” samples.
FIG. 5 is graphs showing dependence of SIRT5 initial rate kinetics on the concentrations of Ac-Lys(Succ.)-AMC and Ac-Lys(Ac.)-AMC. Fifty μl desuccinylation or deacetylation reactions were performed as described earlier (FIG. 4), with the indicated concentrations of Ac-Lys(Succ.)-AMC or Ac-Lys(Ac.)-AMC and 1 mM NAD^+, for 20 min. at 37° C. Reactions with Ac-Lys(Succ.)-AMC contained 10 ng SIRT5 and those with Ac-Lys(Ac.)-AMC contained 5 SIRT5. Reactions were stopped and AMC cleaved from deacetylated or desuccinylated substrate by trypsin treatment as described earlier (FIG. 4). AMC fluorescence was read in a Synergy 2 plate-reading fluorimeter (BioTek) at wavelengths 360 nm (excitation)/460 nm (emission), Gain 40. Data represent the mean of the differences of three determinations with enzyme (10 ng or 5 SIRT5) from the mean of two no enzyme samples for each substrate concentration. Error bars are the standard deviations from those means. Fluorescence differences were converted to specific activities (pmol/min/μg) by measuring the fluorescence increase due to the addition a standard solution of AMC (5 μl of a […]).
FIG. 6 is a graph showing the dependence of SIRT5 initial rate kinetics of Ac-Lys(Succ.)-AMC desuccinylation on the concentration of NAD^+. Reaction conditions were as described for FIG. 5 but with a constant Ac-Lys(Succ.)-AMC concentration of 0.5 mM and the indicated concentrations of NAD^+. Data analysis and determination of kinetic parameters were as described (FIG. 5).
FIG. 12 is graphs showing that SIRT5 catalyzes NAD^+-dependent desuccinylation of (Ac-Lys(Succ.))2-R110 far more efficiently than NAD^+-dependent deacetylation of (Ac-Lys(Ac.))2-R110. Fifty μl reactions in Assay Buffer (50 mM Tris/HCl, pH 8.0, 137 mM NaCl, 2.7 mM KCl, 1 mM MgCl2, 1 mg/ml BSA) included 50 μM of either (Ac-Lys(Succ.))2-R110 or (Ac-Lys(Ac.))2-R110, and, where indicated, 500 μM NAD^+ and 5 μg recombinant human SIRT5 (Enzo Life Sciences Cat. # BML-SE555). […]

[3] = target: T2, SIRT5; assay: Inhibition of SIRT5 desuccinylation of Ac-Lys(Succ.)-AMC; parameters: purchased Enzo Life Sciences BML-SE555; settings: three parameter Hill-Slope model, bottom fixed at 0
Excerpt: Signal development (trypsin treatment) and fluorescence readings were done as described, as were the conversion of fluorescence increases to rates in units of pmol/min/μg (FIG. 5). Data points represent the mean of three determinations and the error bars are the standard deviations from those means. The dose-response curve was derived from a least-squares fit to a three parameter Hill-Slope model (bottom fixed at 0 pmol/min/μg), y=top/(1+(x/IC50)^slope).
Data points represent the mean of three determinations and the error bars are the standard deviations from those means. The dose-response curve was derived from a least-squares fit to a three parameter Hill-Slope model (bottom fixed at 0 pmol/min/μg), y=top/(1+(x/IC50)^slope).
(§1) Assays were performed at 37° C., according to the manufacturer's instructions for the “SIRT1 Fluorometric Drug Discovery Kit” from Enzo Life Sciences (ELS) (Cat. # BML-AK555), with exceptions described as follows. Where indicated in figures and text, SIRT1 enzyme was replaced with another enzyme or extract and the “Fluor de Lys-SIRT1 Substrate” (Ac-Arg-His-Lys-Lys(Ac)-AMC; ELS Cat. # BML-KI-177) was replaced with another acetylated, succinylated or trifluoroacetylated substrate.

[4] = target: T3, HDAC2 (Homo sapiens, UniProt Q92769); assay: HDAC activity with fluorogenic lysyl substrates; settings: 50 μM substrate
T3 construct: purchased ENZO Life Sciences BML-SE500
Description: The Ac-Lys(Succ.)-AMC substrate was tested for activity with recombinant preparations of human HDACs 1-11, SIRTs 1-4, 6 and 7, a complex of HDAC3 with a fragment of the activating protein NCOR1 and with HeLa nuclear extract, a rich source of active HDACs in their native multiprotein complexes.
Enzyme and extract catalog products obtained from ENZO Life Sciences included: HDAC1 (Cat. # BML-SE456), HDAC2 (Cat. # BML-SE500), HDAC3 (Cat. # BML-SE507), HDAC3/NCOR1 Complex (Cat. # BML-SE515), HDAC6 (Cat. # BML-SE508), HDAC8 (Cat. # BML-SE145), HDAC10 (Cat. # BML-SE559), HDAC11 (Cat. # BML-SE560), SIRT1 (Cat. # BML-SE239), SIRT2 (Cat. # BML-SE251), SIRT3 (Cat. # BML-SE270), SIRT5 (Cat. # BML-SE555), HeLa Nuclear Extract (Cat. # BML-KI140), Trypsin (“Fluor de Lys Developer”, 80 mg/ml bovine trypsin in 1 mM HCl, Cat. # BML-KI105 or “Fluor de Lys Developer II”, 80 mg/ml bovine trypsin in 1 mM HCl, Cat. # BML-KI176). […] Enzymes obtained from BPS Bioscience, San Diego, Calif. included: human recombinants SIRT4 (Cat. #50015), SIRT6 (Cat. #50017), SIRT7 (Cat. #50018). HeLa whole cell extract was obtained from HeLa S3 cells (American Type Culture Collection) grown in a medium of MEM/10% fetal bovine serum (FBS) as follows: 1) 9×10^6 cells were suspended by trypsinization, followed by a phosphate buffered saline (PBS) rinse and addition of MEM/10% FBS (1.5 mL) to eliminate trypsin before transfer to a 15 mL conical tube; 2) cells were sedimented by a low speed centrifugation, gently resuspended in PBS and sedimented again and supernatant removed; 3) lysis was induced by resuspension in 0.8 mL 50 mM Tris/HCl, pH 8.0 with the non-denaturing detergent NP-40 (0.5%), placement on ice and brief vortexing every 5 min. for 30 min.; 4) 100 μl of a concentrated salt solution in the same buffer was added in order to bring the final buffer composition to 50 mM Tris/C1, pH 8.0, 137 mM NaCl, 2.7 mM KCl, 1 mM MgCl2, 0.5% NP-40; 5) particulate matter was cleared by centrifugation and the cleared lysate supernatant transferred to a 1.5 mL Eppendorf tube and stored on ice until use in activity assays.
as §1

T3 sequence (Q92769 whole entry): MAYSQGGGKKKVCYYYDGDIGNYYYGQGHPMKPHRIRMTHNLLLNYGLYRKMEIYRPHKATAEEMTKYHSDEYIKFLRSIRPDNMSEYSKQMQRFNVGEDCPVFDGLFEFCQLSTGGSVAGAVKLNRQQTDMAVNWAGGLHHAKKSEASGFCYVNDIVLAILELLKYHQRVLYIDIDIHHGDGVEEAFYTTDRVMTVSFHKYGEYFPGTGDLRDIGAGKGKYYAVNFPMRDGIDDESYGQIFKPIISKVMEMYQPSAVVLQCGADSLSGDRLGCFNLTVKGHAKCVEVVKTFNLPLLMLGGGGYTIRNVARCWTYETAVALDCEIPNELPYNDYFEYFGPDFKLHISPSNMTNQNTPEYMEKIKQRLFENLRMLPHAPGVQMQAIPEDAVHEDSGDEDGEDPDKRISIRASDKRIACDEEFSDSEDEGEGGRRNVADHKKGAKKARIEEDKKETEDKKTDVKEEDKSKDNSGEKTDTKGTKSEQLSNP

SMILES: CC(=O)N[C@@H](CCCCN)C(=O)Nc1ccc2c(C)cc(=O)oc2c1 [Compound 6, N-(α-acetyl-Lysine)-AMC, reference compound]
Fraction of maximum fluorescence at 1 min. [1]: ⅔
Time to maximum fluorescence on trypsin treatment [1]: ≤ 2 min

SMILES: CC(=O)NC(CCCCNC(=O)CCC(=O)O)C(=O)Nc1ccc2c(c1)Oc1cc(NC(=O)C(CCCCNC(=O)CCC(=O)O)NC(C)=O)ccc1C21OC(=O)c2ccccc21 (stereo not drawn) [Compound 2, N,N′-Bis(α-acetyl-Lysine(ε-succinyl))-rhodamine 110]
SIRT5/NAD^+ dependence of desuccinylation ([2]; 5 μg SIRT5, 50 μM substrate, 500 μM NAD^+, 60 min.): desuccinylated by SIRT5 in a time and NAD^+-dependent manner

SMILES: NC(=O)c1ccc[n+]([C@@H]2O[C@H](COP(=O)([O-])OP(=O)(O)OC[C@H]3O[C@@H](n4cnc5c(N)ncnc54)[C@H](O)[C@@H]3O)[C@@H](O)[C@H]2O)c1 [NAD^+]
Km ([2]; varied substrate: NAD^+, constant 0.5 mM Ac-Lys(Succ.)-AMC): 360 µM

Next, values leading:

slope (fitted parameter of dose-response curve) [3]: 0.98
top (fitted parameter of dose-response curve) [3]: 90.2 pmol/min/µg
SMILES: NC(=O)c1cccnc1 [nicotinamide]

Activity (pmol/min/μg) [4]: (Ac-Lys(Ac))2-R110/502 pmol/min/μg
SMILES: CC(=O)NCCCCC(NC(C)=O)C(=O)Nc1ccc2c(c1)Oc1cc(NC(=O)C(CCCCNC(C)=O)NC(C)=O)ccc1C21OC(=O)c2ccccc21 (stereo not shown) [(Ac-Lys(Ac))2-R110, reference compound]
